# Values joined by “and” are separate entries in the source; they are usually repeats but may differ in a detail not shown here. Identical values can stand only once.
# System: Htel-FT (human telomeric DNA G4)
# Assay: FRET melting assay, Htel-FT
# Type: binding
# Settings: +10µM ds26; ligand 1 μM, DNA 0.2 μM
# Protocol: (§1) Doubly labelled oligonucleotides with fluorescein and TAMRA were purchased lyophilized and RP-cartridge purified from Eurogentec (Kanaka Eurogentec, Seraing, Belgium). FRET melting experiments were run on Stratagene Mx3005P real-time PCR equipment in 96-well plates on the DNA sequences listed Table 1. Experiments were performed in 10 mM lithium cacodylate buffer (pH 7.2) and 10 mM KCl and 90 mM LiCl as previously described.[45,46] The DNA concentration was 0.2 μM. The stabilization (ΔT1/2) induced by compounds was calculated as the difference between the Tm of the nucleic acid alone and that measured with a ligand concentration of 1 μM. Data are presented as averages of three independent measurements, each conducted in duplicate (λexc = 492 nm, λem = 516 nm, T interval = 25–95 °C, ramp: 25 °C for 5 min, then 1 °C min^−1, measurements every 1 °C, 8× magnification of the fluorescence signal). The G4 selectivity of the ligands with respect to the duplex was evaluated by determining the Tm values in the presence of 0, 3 or 10 μM of the duplex competitor ds26.
# (§2) In this assay, we performed thermal denaturation experiments by heating and recording the fluorescence of DNA oligonucleotides doubly labelled with fluorescein and TAMRA fluorophores (Fig. 3 and S7). Ligand binding to the G4 stabilises the structure, resulting in an increase in the half-dissociation temperature of the structure (ΔT1/2). As a first approximation, the higher the ΔT1/2 (ΔT1/2 higher), the higher the affinity of the ligand for the target.[45]
# (§3) The fluorescently labeled oligonucleotides were dissolved at a concentration of 0.2 μM in 10 mM lithium cacodylate buffer (pH 7.2) with 10 mM KCl and 90 mM LiCl. […] E) Radar plot representation that summarizes the FRET-melting results (ΔT1/2 (°C)) for each ligand in the presence of HIVpro1-FT (green), HIVpro2-FT (grey), LTR4-FT (bleu), and Htel-FT (red). Data are the results of at least three independent experiments in which each data point was performed in duplicate.
row,Compound,ΔT1/2 Htel [°C]
1,COc1ccc(-[n+]2c3ccc4cc(OC)ccc4c3cc3c4ccc(OC)cc4ccc32)cc1 [DBA3],14±0.1
2,COc1ccc2c(ccc3c2cc2c4ccc(OC)cc4ccc2[n+]3-c2ccc([N+](=O)[O-])cc2)c1 [DBA4],14±0.3
3,c1ccc(-[n+]2c3ccc4ccccc4c3cc3c4ccccc4ccc32)cc1 [DBA5],9.0±0.1

# Same assay, conditions: No ds26; ligand 1 μM, DNA 0.2 μM
row,Compound,ΔT1/2 Htel [°C]
1,c1ccc(-[n+]2c3ccc4ccccc4c3cc3c4ccccc4ccc32)cc1 [DBA5],12.2±0.1

# System: HIV-1
# Assay: microbe, parasite or virus in culture
# Settings: Human immunodeficiency virus 1, HeLaP4, read-out: IC50 (infectivity inhibition), native HIV-1, MOI 1, compound added 30 min before infection, 24 h, β-gal reporter
row,Compound,IC50 [µM]
1,COc1ccc(-[n+]2c3ccc4cc(OC)ccc4c3cc3c4ccc(OC)cc4ccc32)cc1 [DBA3],4.3
2,COc1ccc2c(ccc3c2cc2c4ccc(OC)cc4ccc2[n+]3-c2ccc([N+](=O)[O-])cc2)c1 [DBA4],1

# System: LTR4-FT (parallel DNA G4)
# Assay: FRET melting assay, LTR4-FT
# Type: binding, HIV-1
# Settings: +10µM ds26; ligand 1 μM, DNA 0.2 μM
# Protocol: as §1, §2, §3
row,Compound,ΔT1/2 LTR4 [°C]
1,COc1ccc(-[n+]2c3ccc4cc(OC)ccc4c3cc3c4ccc(OC)cc4ccc32)cc1 [DBA3],10.2±0.3
2,COc1ccc2c(ccc3c2cc2c4ccc(OC)cc4ccc2[n+]3-c2ccc([N+](=O)[O-])cc2)c1 [DBA4],10±0.7
3,c1ccc(-[n+]2c3ccc4ccccc4c3cc3c4ccccc4ccc32)cc1 [DBA5],6.0±1.3

# Same assay, conditions: No ds26; ligand 1 μM, DNA 0.2 μM
row,Compound,ΔT1/2 LTR4
1,COc1ccc(-[n+]2c3ccc4cc(OC)ccc4c3cc3c4ccc(OC)cc4ccc32)cc1 [DBA3],10.6±0.7 °C
2,COc1ccc2c(ccc3c2cc2c4ccc(OC)cc4ccc2[n+]3-c2ccc([N+](=O)[O-])cc2)c1 [DBA4],11±0.5 °C and 11 °C

# Target: G4T4G4 DNA G4 (antiparallel)
# Assay: Native ESI-MS, G4T4G4
# Type: binding
# Settings: 10 μM DNA, 20 μM ligand, 100 mM ammonium acetate; read-out: Kd1 G4T4G4
# Protocol: (§4) Oligonucleotides were purchased lyophilized and RP-cartridge purified from Eurogentec (Kanaka Eurogentec, Seraing, Belgium), then buffer exchanged with ammonium acetate (5 M; Sigma-Aldrich, Saint-Quentin-Fallavier, France) using Amicon Ultra (3 K cut-off; Merck Millipore, Cork, Ireland). The concentrations of the initial stock solutions of DNA/RNA (∼1 mM) were measured by UV absorbance at 260 nm. Sample solutions were prepared by diluting the appropriate volume of oligonucleotide stock solutions to reach 10 μM of DNA/RNA and 20 μM of ligand, in 100 mM ammonium acetate. The solutions were incubated for 16 h at 4 °C before analysis by mass spectrometry. […] These parameters ensured a good signal intensity without disrupting noncovalent complexes, which was verified using d[G4T4G4]2 as a control. The presented spectra of all DNA/RNA used in this work (Fig. 5, S9 and S10) result from 8 min accumulations. The abundance of each species, M, M + 1L, M + 2L and M + 3L complexes, where M is a monomer oligonucleotide and L is a ligand, was determined from their peak area signals (A), from the sum of the −4, −5 and −6 charge states for DNA and from the sum of the −5, −6 and −7 charge states for RNA, assuming that their response factors are equal. The molar concentrations were then calculated knowing the total amount of oligonucleotide [M]tot: [drawing 1] [drawing 2] [drawing 3] [drawing 4] The concentration of the free ligand, [L]free, was determined from its total concentration [L]tot:[L]free = [L]tot − [M + 1L] − 2[M + 2L] − 3[M + 3L]Apparent consecutive dissociation constants (Kd1, Kd2 and Kd3) were calculated by using the following equations: [drawing 5] [drawing 6] [drawing 7]
# (§5) We further analysed the formation of the DBA/G4 complexes by native electrospray ionization mass spectrometry (ESI-MS). We initially attempted to analyze DBA binding to the primary G4 targets from HIV-1 (HIVpro1, HIVpro2, LTR4 and rLTR4 RNA). […] These sequences span the major G4 topological classes and provide a representative assessment of DBA binding across diverse G4 architectures. We also included two DNA duplex controls (DK100 and DK66) to evaluate binding selectivity. This ESI-MS approach enables direct determination of binding stoichiometry, quantification of each species in solution, and calculation of dissociation constants (Kd) from the relative abundances of free and bound forms.[88,97]
# (§6) In the ESI-MS conditions, the rLTR4 G4 (10 μM) forms a dimeric structure. […] Among the six DNA and RNA tested here (Fig. 5B, S9 and S10) only rLTR4 presented 1 : 3 G4/DBA complexes. In all cases but one, the 1 : 1 stoichiometry represents the major species in solution while for rLTR4 it is the 1 : 2 (green). […] For TG4T tetramolecular G4 or G4T4G4 bimolecular G4 only 1 : 1 and 1 : 2 complexes were detected (Fig. S9A and S10A). […] The weakest binding was obtained for the G4T4G4 antiparallel G4 and Htel sequence with Kd1s ranging from 11 μM for to 500 μM (Table 2).
row,Compound,Kd [µM]
1,COc1ccc(-[n+]2c3ccc4cc(OC)ccc4c3cc3c4ccc(OC)cc4ccc32)cc1 [DBA3],36.9
2,COc1ccc2c(ccc3c2cc2c4ccc(OC)cc4ccc2[n+]3-c2ccc([N+](=O)[O-])cc2)c1 [DBA4],46.2
3,c1ccc(-[n+]2c3ccc4ccccc4c3cc3c4ccccc4ccc32)cc1 [DBA5],129

# Same assay, conditions: 10 μM DNA, 20 μM ligand, 100 mM ammonium acetate; read-out: Kd2 G4T4G4
row,Compound,Kd [µM]
1,COc1ccc(-[n+]2c3ccc4cc(OC)ccc4c3cc3c4ccc(OC)cc4ccc32)cc1 [DBA3],37
2,COc1ccc2c(ccc3c2cc2c4ccc(OC)cc4ccc2[n+]3-c2ccc([N+](=O)[O-])cc2)c1 [DBA4],26.6
3,c1ccc(-[n+]2c3ccc4ccccc4c3cc3c4ccccc4ccc32)cc1 [DBA5],33.4

# System: HIVpro2-FT (hybrid DNA G4)
# Assay: FRET melting assay, HIVpro2-FT
# Type: binding, HIV-1
# Settings: +10µM ds26; ligand 1 μM, DNA 0.2 μM
# Protocol: as §1, §2, §3
row,Compound,ΔT1/2 HIVpro2 [°C]
1,COc1ccc(-[n+]2c3ccc4cc(OC)ccc4c3cc3c4ccc(OC)cc4ccc32)cc1 [DBA3],3.8±0.6
2,COc1ccc2c(ccc3c2cc2c4ccc(OC)cc4ccc2[n+]3-c2ccc([N+](=O)[O-])cc2)c1 [DBA4],3.0±0.8
3,c1ccc(-[n+]2c3ccc4ccccc4c3cc3c4ccccc4ccc32)cc1 [DBA5],1.7±0.9

# Same assay, conditions: No ds26; ligand 1 μM, DNA 0.2 μM
row,Compound,ΔT1/2 HIVpro2
1,COc1ccc(-[n+]2c3ccc4cc(OC)ccc4c3cc3c4ccc(OC)cc4ccc32)cc1 [DBA3],3.5±0.2 °C and 3.5 °C
2,COc1ccc2c(ccc3c2cc2c4ccc(OC)cc4ccc2[n+]3-c2ccc([N+](=O)[O-])cc2)c1 [DBA4],3.8±0.3 °C and 3.8 °C
3,c1ccc(-[n+]2c3ccc4ccccc4c3cc3c4ccccc4ccc32)cc1 [DBA5],1.9±0.1 °C

# System: DK66 (DNA, duplex) CGCGAATTCGCG
# Assay: native ESI-MS
# Settings: 100 mM ammonium acetate (NH4+), no K+; apparent, site 1 of 2; 10 μM DNA, 20 μM ligand, 4 °C incubation
row,Compound,Kd1 [µM]
1,COc1ccc2c(ccc3c2cc2c4ccc(OC)cc4ccc2[n+]3-c2ccc([N+](=O)[O-])cc2)c1 [DBA4],165.13
2,c1ccc(-[n+]2c3ccc4ccccc4c3cc3c4ccccc4ccc32)cc1 [DBA5],75.39

# Same assay, conditions: 100 mM ammonium acetate (NH4+), no K+; apparent; 10 μM DNA, 20 μM ligand, 4 °C incubation; almost no complex detected
row,Compound,Kd1 [µM]
1,COc1ccc(-[n+]2c3ccc4cc(OC)ccc4c3cc3c4ccc(OC)cc4ccc32)cc1 [DBA3],1071.92

# Target: rLTR4 RNA G4
# Assay: Native ESI-MS, rLTR4
# Type: binding, HIV-1
# Settings: 10 μM RNA, 20 μM ligand, 100 mM ammonium acetate; read-out: Kd1 rLTR4
# Protocol: as §4, §5, §6
row,Compound,Kd [µM]
1,COc1ccc(-[n+]2c3ccc4cc(OC)ccc4c3cc3c4ccc(OC)cc4ccc32)cc1 [DBA3],12.2
2,COc1ccc2c(ccc3c2cc2c4ccc(OC)cc4ccc2[n+]3-c2ccc([N+](=O)[O-])cc2)c1 [DBA4],10.4
3,c1ccc(-[n+]2c3ccc4ccccc4c3cc3c4ccccc4ccc32)cc1 [DBA5],4.99

# Same assay, conditions: 10 μM RNA, 20 μM ligand, 100 mM ammonium acetate; read-out: Kd2 rLTR4
row,Compound,Kd [µM]
1,COc1ccc(-[n+]2c3ccc4cc(OC)ccc4c3cc3c4ccc(OC)cc4ccc32)cc1 [DBA3],0.14
2,COc1ccc2c(ccc3c2cc2c4ccc(OC)cc4ccc2[n+]3-c2ccc([N+](=O)[O-])cc2)c1 [DBA4],0.5
3,c1ccc(-[n+]2c3ccc4ccccc4c3cc3c4ccccc4ccc32)cc1 [DBA5],10

# Same assay, conditions: 10 μM RNA, 20 μM ligand, 100 mM ammonium acetate; read-out: Kd3 rLTR4
row,Compound,Kd [µM]
1,COc1ccc(-[n+]2c3ccc4cc(OC)ccc4c3cc3c4ccc(OC)cc4ccc32)cc1 [DBA3],31
2,COc1ccc2c(ccc3c2cc2c4ccc(OC)cc4ccc2[n+]3-c2ccc([N+](=O)[O-])cc2)c1 [DBA4],21.3
3,c1ccc(-[n+]2c3ccc4ccccc4c3cc3c4ccccc4ccc32)cc1 [DBA5],1.47

# — paper PMC13334477 (RSC Medicinal Chemistry, 2026)
